From ChEMBL document CHEMBL5729526, “Substituted imidazolidin-2-one derivatives as PRMT5 inhibitors” (2023)

Biological target: Protein arginine N-methyltransferase 5 (Homo sapiens, UniProt O14744)
Experiment: TR-FRET Assay: Protein arginine methyltransferase 5 (PRMT5) is a type II arginine methyltransferase that catalyze mono- and symmetric […] on arginine residues of histone or non-histone proteins in presence of S-adenosylmethionine (AdoMet or SAM) a cofactor responsible for donating the methyl group. PRMT5 is reported to be overexpressed in several human cancers. To identify compounds that inhibit the PRMT5 and decrease its activity, a TR-FRET based assay has been established. Time-resolved fluorescence resonance energy transfer (TR-FRET) HTS assays are homogeneous proximity assays where the interaction of two dye-labeled binding partners is detected by the energy transfer between a donor and an acceptor dye, and the subsequent light emission by the acceptor dye. PRMT5 catalyzes Histone H4 peptide [1-16] which is biotin tagged to the Lysine amino acid at carboxyl end, in presence of S-adenosyl-1-methionine (SAM) to methylate the peptide. The antibody specific to mono methylated H4 peptide (H4R3) with Ig conjugate binds to the methylated peptide, indirectly binding to the Europium lanthanide. SureLight Allophycocyanin-Streptavidin binds to the biotin tag of the peptide, therefore accepting the energy transferred from the Europium lanthanide. This energy transfer between Europium to SureLight Allophycocyanin is a direct measure of the activity/inhibition of the PRMT5 enzyme. […]

Protein arginine N-methyltransferase 5, sequence (O14744 whole entry): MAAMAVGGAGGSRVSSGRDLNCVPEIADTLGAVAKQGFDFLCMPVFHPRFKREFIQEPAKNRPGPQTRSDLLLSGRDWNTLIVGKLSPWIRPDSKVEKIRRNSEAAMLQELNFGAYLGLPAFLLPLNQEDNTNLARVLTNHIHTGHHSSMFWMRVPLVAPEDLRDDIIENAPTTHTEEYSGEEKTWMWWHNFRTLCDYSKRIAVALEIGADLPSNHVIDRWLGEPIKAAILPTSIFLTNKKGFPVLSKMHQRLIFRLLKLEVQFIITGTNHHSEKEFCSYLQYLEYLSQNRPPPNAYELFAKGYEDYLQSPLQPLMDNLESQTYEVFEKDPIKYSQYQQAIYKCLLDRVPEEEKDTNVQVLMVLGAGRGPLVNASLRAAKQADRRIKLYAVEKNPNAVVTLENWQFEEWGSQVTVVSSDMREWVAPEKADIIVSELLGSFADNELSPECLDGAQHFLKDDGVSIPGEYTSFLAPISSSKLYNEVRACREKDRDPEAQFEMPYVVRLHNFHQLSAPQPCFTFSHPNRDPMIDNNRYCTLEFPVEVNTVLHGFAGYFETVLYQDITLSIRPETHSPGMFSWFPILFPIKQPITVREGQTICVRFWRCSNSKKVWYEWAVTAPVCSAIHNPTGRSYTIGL

Structure (SMILES): O=C1N(Cc2cnc(-c3cccnc3)cn2)CCN1C[C@H](O)CN1CCc2ccccc2C1
- IC50: 0.053 µM
